How the values were obtained:
[1] = Plasma methadone concentrations by liquid chromatography/triple quadrupole mass spectrometry (Example I); settings: methadone alone 1 mg/kg PO, Dog 1-6
[2] = test system: dogs undergoing ovariohysterectomy; test: Adverse effects in ovariohysterectomy clinical trial (Example IV); settings: injection group, 0.5 mg/kg SC q 4 h
[3] = Plasma methadone, fluconazole, naltrexone and naltrexone metabolite concentrations (Example IV)
Text: Anesthesia was monitored by licensed veterinary technicians.

[4] = humans; cited from earlier work
[5] = test system: dogs undergoing ovariohysterectomy; test: Postoperative pain: Glasgow Composite Pain Scale and need for rescue analgesic (Example IV); settings: 0.5 mg/kg SC q 4 h; total 13
healthy dogs = test: Sedation assessment after oral methadone alone or with oral fluconazole (Example I); assay type: in vivo, dog; settings: methadone alone 1 mg/kg PO
[6] = test system: dogs undergoing ovariohysterectomy; test: Pre-anesthetic sedation in ovariohysterectomy clinical trial (Example IV); settings: 0.5 mg/kg SC q 4 h; with acepromazine 0.05 mg/kg SC
[7] = test system: dogs undergoing ovariohysterectomy; test: Sedation scores at each time point in ovariohysterectomy clinical trial (Example IV); settings: 0.5 mg/kg SC q 4 h

In the case of CCC(=O)C(CC(C)N(C)C)(c1ccccc1)c1ccccc1 (racemic) [methadone], the “Plasma methadone concentration, individual dogs” value ([1]; 6 hr) was under 0.5 ng/mL, the “Plasma methadone concentration, individual dogs” value ([1]; 8 hr) was under 0.5 ng/mL and the “Plasma methadone concentration, individual dogs” value ([1]; 12 hr) was under 0.5 ng/mL. The “Plasma methadone concentration, individual dogs” value ([1]; 24 hr) was under 0.5 ng/mL, the “Perioperative nausea or vomiting (dogs affected/dogs in group)” value [2] was 2/13 and the “Plasma methadone concentrations median (range)” value ([3]; injectable methadone 0.5 mg/kg SC q 4 h, Day 1 4:00 PM) was 14.4 (5.4-32.9)^1. For the same compound, the “Plasma methadone concentrations median (range)” value ([3]; injectable methadone 0.5 mg/kg SC q 4 h, Day 1 8:00 PM) was 22.4 (14.8-47.7), the “Plasma methadone concentrations median (range)” value ([3]; injectable methadone 0.5 mg/kg SC q 4 h, Day 2 5:00 PM) was 2.0 (0-10)^1,2 and the “Plasma methadone concentrations median (range)” value ([3]; oral methadone/fluconazole/naltrexone formulation 0.5 mg/kg (methadone) PO q 12 h, Day 1 4:00 PM) was 20.6 (2.6-30.3)^2. For the same compound, the “Plasma methadone concentrations median (range)” value ([3]; oral methadone/fluconazole/naltrexone formulation 0.5 mg/kg (methadone) PO q 12 h, Day 1 8:00 PM) was 17.6 (2.0-29.8)^1, the “Plasma methadone concentrations median (range)” value ([3]; oral methadone/fluconazole/naltrexone formulation 0.5 mg/kg (methadone) PO q 12 h, Day 2 5:00 PM) was 14.1 (3.6-41.7)^2,3 and the “Plasma methadone concentrations median (range)” value ([3]; oral methadone/fluconazole/naltrexone formulation 1 mg/kg (methadone) PO q 12 h, Day 1 4:00 PM) was 36.2 (3.2-67.7)^1,2. For the same compound, the “Plasma methadone concentrations median (range)” value ([3]; oral methadone/fluconazole/naltrexone formulation 1 mg/kg (methadone) PO q 12 h, Day 1 8:00 PM) was 27.7 (2.1-54.8)^1, the “Plasma methadone concentrations median (range)” value ([3]; oral methadone/fluconazole/naltrexone formulation 1 mg/kg (methadone) PO q 12 h, Day 2 5:00 PM) was 46.7 (1.4-98.5)^1,3 and the “Increase in methadone drug exposure when fluconazole is administered with methadone” value [4] was 30-35%. The “Treatment Outcome: Failure (number of dogs, rescue analgesic needed)” value [5] was 0, the “Treatment Outcome: Success (number of dogs, no rescue analgesic)” value [5] was 13 and the Sedation (healthy dogs) was “not noted in any of the dogs at any time point”. The “Pre-anesthetic sedation: A. None - no apparent effect (number of dogs)” value [6] was 0, the “Pre-anesthetic sedation: B. Mild - drowsy, but still active (number of dogs)” value [6] was 7 and the “Pre-anesthetic sedation: C. Moderate - drowsy, glazed eyes, but still able to walk without assistance (number of dogs)” value [6] was 3. For the same compound, the “Pre-anesthetic sedation: D. Heavy - Very drowsy, unable to walk or requires assistance to walk (number of dogs)” value [6] was 3, the “Sedation Score Moderate (number of dogs)” value ([7]; Day 0 5:00 PM) was 0 and the “Sedation Score None (number of dogs)” value ([7]; Day 0 5:00 PM) was 13. For the same compound, the “Sedation Score Profound (number of dogs)” value ([7]; Day 0 5:00 PM) was 0, the “Sedation Score Slight (number of dogs)” value ([7]; Day 0 5:00 PM) was 0 and the “Sedation Score Moderate (number of dogs)” value ([7]; Day 1 1:00 PM) was 3. The “Sedation Score None (number of dogs)” value ([7]; Day 1 1:00 PM) was 1, the “Sedation Score Profound (number of dogs)” value ([7]; Day 1 1:00 PM) was 3 and the “Sedation Score Slight (number of dogs)” value ([7]; Day 1 1:00 PM) was 6. For the same compound, the “Sedation Score Moderate (number of dogs)” value ([7]; Day 1 4:00 PM) was 0, the “Sedation Score None (number of dogs)” value ([7]; Day 1 4:00 PM) was 5 and the “Sedation Score Profound (number of dogs)” value ([7]; Day 1 4:00 PM) was 0. For the same compound, the “Sedation Score Slight (number of dogs)” value ([7]; Day 1 4:00 PM) was 8, the “Sedation Score Moderate (number of dogs)” value ([7]; Day 1 6:00 PM) was 1 and the “Sedation Score None (number of dogs)” value ([7]; Day 1 6:00 PM) was 4. The “Sedation Score Profound (number of dogs)” value ([7]; Day 1 6:00 PM) was 0, the “Sedation Score Slight (number of dogs)” value ([7]; Day 1 6:00 PM) was 8 and the “Sedation Score Moderate (number of dogs)” value ([7]; Day 1 8:00 PM) was 0. For the same compound, the “Sedation Score None (number of dogs)” value ([7]; Day 1 8:00 PM) was 9, the “Sedation Score Profound (number of dogs)” value ([7]; Day 1 8:00 PM) was 0 and the “Sedation Score Slight (number of dogs)” value ([7]; Day 1 8:00 PM) was 6. The “Sedation Score Moderate (number of dogs)” value ([7]; Day 1 12:00 PM) was 1, the “Sedation Score None (number of dogs)” value ([7]; Day 1 12:00 PM) was 2 and the “Sedation Score Profound (number of dogs)” value ([7]; Day 1 12:00 PM) was 0. The “Sedation Score Slight (number of dogs)” value ([7]; Day 1 12:00 PM) was 10, the “Sedation Score Moderate (number of dogs)” value ([7]; Day 2 5:00 PM) was 0 and the “Sedation Score None (number of dogs)” value ([7]; Day 2 5:00 PM) was 13. The “Sedation Score Profound (number of dogs)” value ([7]; Day 2 5:00 PM) was 0, the “Sedation Score Slight (number of dogs)” value ([7]; Day 2 5:00 PM) was 0 and the “Sedation Score Moderate (number of dogs)” value ([7]; Day 2 6:30 AM) was 0. For the same compound, the “Sedation Score None (number of dogs)” value ([7]; Day 2 6:30 AM) was 13, the “Sedation Score Profound (number of dogs)” value ([7]; Day 2 6:30 AM) was 0 and the “Sedation Score Slight (number of dogs)” value ([7]; Day 2 6:30 AM) was 0. The “Sedation Score Moderate (number of dogs)” value ([7]; Day 3 7:00 AM) was 0, the “Sedation Score None (number of dogs)” value ([7]; Day 3 7:00 AM) was 13 and the “Sedation Score Profound (number of dogs)” value ([7]; Day 3 7:00 AM) was 0. The “Sedation Score Slight (number of dogs)” value ([7]; Day 3 7:00 AM) was 0.
